{"source": "patent US4068070A", "about": "“α-Cyanoamine compounds and a process for producing the same” (Fuji Chemical Industry Co., Ltd., priority 1974, dated 1978)", "format_in_all_cases": "in vivo, mongrel adult dogs", "key": {"[1]": {"test_system": "coronary sinus out flow", "experiment": "Effects on coronary sinus out flow", "procedure": "(§1) All experiments were made on male and female thoractomized mongrel adult dogs weighing about 10 kg. under anesthesia with pentobarbital sodium. Compounds A, D, E and F were suspended in 0.2% CMC solution, Compound B dissolved in hydrochloric acid solution (pH 6), and Compound C and active placebo being dissolved in physiological saline solution. Animals were administered the drug intravenously on brachiuma with either test compound or active placebo.\n(§2) Arterial blood pressure was measured by pressure transducer (Nippon Koden MPU-0.5) connected with the cannula inserted from exposed carotid artery into aorta. Aortic blood flow was determined by means of electromagnetic flow meter (Nippon Koden MF-5) mounted at the origin of the aorta. Coronary sinus out flow and coronary sinus oxygen tension were assessed by means of electromagnetic flow meter (Nippon Koden MF-5) and P02 macro electrode (Beokmann Moder 160-C), respectively using Morawitz cannulization technique. Heart rate was measured by cardiotachometer (Nippon Koden RT-2) synchronized with systolic blood pressure of aorta."}, "[2]": {"test_system": "coronary sinus oxygen tension", "experiment": "Effects on coronary sinus oxygen tension", "procedure": "as §1, §2"}, "[3]": {"test_system": "heart rate", "experiment": "Effects on heart rate", "procedure": "as §1, §2"}}}
{"smiles": "CCOC(=O)CN1CCN(C(C#N)c2ccc(OC)c(OC)c2)CC1", "note": "(stereo not shown) [Compound B]", "values": [{"measurement": "Changes(%) of basal values, coronary sinus out flow", "setting": "[1]; 0.6 mg/kg i.v., 30 min", "result": 0, "unit": "%"}, {"measurement": "Changes(%) of basal values, coronary sinus out flow", "setting": "[1]; 0.6 mg/kg i.v., 40 min", "result": 0, "unit": "%"}, {"measurement": "Changes(%) of basal values, coronary sinus out flow", "setting": "[1]; 0.6 mg/kg i.v., imm.", "result": "+39.5%"}, {"measurement": "Changes(%) of basal values, coronary sinus out flow", "setting": "[1]; 2.0 mg/kg i.v., 1 min", "result": "+47.4%"}, {"measurement": "Changes(%) of basal values, coronary sinus out flow", "setting": "[1]; 2.0 mg/kg i.v., 5 min", "result": "+8.2%"}, {"measurement": "Changes(%) of basal values, coronary sinus out flow", "setting": "[1]; 2.0 mg/kg i.v., 10 min", "result": "+5.9%"}, {"measurement": "Changes(%) of basal values, coronary sinus out flow", "setting": "[1]; 2.0 mg/kg i.v., 20 min", "result": "+3.2%"}, {"measurement": "Changes(%) of basal values, coronary sinus out flow", "setting": "[1]; 2.0 mg/kg i.v., 30 min", "result": "+1.5%"}, {"measurement": "Changes(%) of basal values, coronary sinus out flow", "setting": "[1]; 2.0 mg/kg i.v., 40 min", "result": 0, "unit": "%"}, {"measurement": "Changes(%) of basal values, coronary sinus out flow", "setting": "[1]; 2.0 mg/kg i.v., imm.", "result": "+55.1%"}, {"measurement": "Effects on coronary sinus out flow (in words)", "setting": "[1]; i.v., anesthetized dogs", "result": "a marked increasing effect on coronary sinus out flow, which was proportioned to doses thereof and of long duration"}, {"measurement": "Changes(%) of basal values, coronary sinus oxygen tension", "setting": "[2]; 0.2 mg/kg i.v., 1 min", "result": "+11.3%"}, {"measurement": "Changes(%) of basal values, coronary sinus oxygen tension", "setting": "[2]; 0.2 mg/kg i.v., 5 min", "result": "+1.0%"}, {"measurement": "Changes(%) of basal values, coronary sinus oxygen tension", "setting": "[2]; 0.2 mg/kg i.v., 10 min", "result": -2.0, "unit": "%"}, {"measurement": "Changes(%) of basal values, coronary sinus oxygen tension", "setting": "[2]; 0.2 mg/kg i.v., 20 min", "result": -0.5, "unit": "%"}, {"measurement": "Changes(%) of basal values, coronary sinus oxygen tension", "setting": "[2]; 0.2 mg/kg i.v., 30 min", "result": 0, "unit": "%"}, {"measurement": "Changes(%) of basal values, coronary sinus oxygen tension", "setting": "[2]; 0.2 mg/kg i.v., 40 min", "result": 0, "unit": "%"}, {"measurement": "Changes(%) of basal values, coronary sinus oxygen tension", "setting": "[2]; 0.2 mg/kg i.v., imm.", "result": "+25.5%"}, {"measurement": "Changes(%) of basal values, coronary sinus oxygen tension", "setting": "[2]; 0.6 mg/kg i.v., 1 min", "result": "+46.4%"}, {"measurement": "Changes(%) of basal values, coronary sinus oxygen tension", "setting": "[2]; 0.6 mg/kg i.v., 5 min", "result": "+8.9%"}, {"measurement": "Changes(%) of basal values, coronary sinus oxygen tension", "setting": "[2]; 0.6 mg/kg i.v., 10 min", "result": -3.2, "unit": "%"}, {"measurement": "Changes(%) of basal values, coronary sinus oxygen tension", "setting": "[2]; 0.6 mg/kg i.v., 20 min", "result": -0.9, "unit": "%"}, {"measurement": "Changes(%) of basal values, coronary sinus oxygen tension", "setting": "[2]; 0.6 mg/kg i.v., 30 min", "result": 0, "unit": "%"}, {"measurement": "Changes(%) of basal values, coronary sinus oxygen tension", "setting": "[2]; 0.6 mg/kg i.v., 40 min", "result": 0, "unit": "%"}, {"measurement": "Changes(%) of basal values, coronary sinus oxygen tension", "setting": "[2]; 0.6 mg/kg i.v., imm.", "result": "+68.4%"}, {"measurement": "Changes(%) of basal values, coronary sinus oxygen tension", "setting": "[2]; 2.0 mg/kg i.v., 1 min", "result": "+70.9%"}, {"measurement": "Changes(%) of basal values, coronary sinus oxygen tension", "setting": "[2]; 2.0 mg/kg i.v., 5 min", "result": "+26.7%"}, {"measurement": "Changes(%) of basal values, coronary sinus oxygen tension", "setting": "[2]; 2.0 mg/kg i.v., 10 min", "result": "+8.0%"}, {"measurement": "Changes(%) of basal values, coronary sinus oxygen tension", "setting": "[2]; 2.0 mg/kg i.v., 20 min", "result": "+3.0%"}, {"measurement": "Changes(%) of basal values, coronary sinus oxygen tension", "setting": "[2]; 2.0 mg/kg i.v., 30 min", "result": "+0.8%"}, {"measurement": "Changes(%) of basal values, coronary sinus oxygen tension", "setting": "[2]; 2.0 mg/kg i.v., 40 min", "result": 0, "unit": "%"}, {"measurement": "Changes(%) of basal values, coronary sinus oxygen tension", "setting": "[2]; 2.0 mg/kg i.v., imm.", "result": "+80.7%"}, {"measurement": "Effects on coronary sinus oxygen tension (in words)", "setting": "[2]; i.v., anesthetized dogs", "result": "a significant increase in coronary sinus oxygen tension, effect of which was of long duration"}, {"measurement": "Changes(%) of basal values, heart rate", "setting": "[3]; 0.2 mg/kg i.v., 1 min", "result": -0.9, "unit": "%"}, {"measurement": "Changes(%) of basal values, heart rate", "setting": "[3]; 0.2 mg/kg i.v., 5 min", "result": 0, "unit": "%"}, {"measurement": "Changes(%) of basal values, heart rate", "setting": "[3]; 0.2 mg/kg i.v., 10 min", "result": 0, "unit": "%"}, {"measurement": "Changes(%) of basal values, heart rate", "setting": "[3]; 0.2 mg/kg i.v., 20 min", "result": 0, "unit": "%"}, {"measurement": "Changes(%) of basal values, heart rate", "setting": "[3]; 0.2 mg/kg i.v., 30 min", "result": 0, "unit": "%"}, {"measurement": "Changes(%) of basal values, heart rate", "setting": "[3]; 0.2 mg/kg i.v., 40 min", "result": 0, "unit": "%"}, {"measurement": "Changes(%) of basal values, heart rate", "setting": "[3]; 0.2 mg/kg i.v., imm.", "result": -2.4, "unit": "%"}, {"measurement": "Changes(%) of basal values, heart rate", "setting": "[3]; 0.6 mg/kg i.v., 1 min", "result": "+0.6%"}, {"measurement": "Changes(%) of basal values, heart rate", "setting": "[3]; 0.6 mg/kg i.v., 5 min", "result": -0.8, "unit": "%"}, {"measurement": "Changes(%) of basal values, heart rate", "setting": "[3]; 0.6 mg/kg i.v., 10 min", "result": -0.2, "unit": "%"}, {"measurement": "Changes(%) of basal values, heart rate", "setting": "[3]; 0.6 mg/kg i.v., 20 min", "result": 0, "unit": "%"}, {"measurement": "Changes(%) of basal values, heart rate", "setting": "[3]; 0.6 mg/kg i.v., 30 min", "result": -0.5, "unit": "%"}, {"measurement": "Changes(%) of basal values, heart rate", "setting": "[3]; 0.6 mg/kg i.v., 40 min", "result": 0, "unit": "%"}, {"measurement": "Changes(%) of basal values, heart rate", "setting": "[3]; 0.6 mg/kg i.v., imm.", "result": -13.1, "unit": "%"}, {"measurement": "Changes(%) of basal values, heart rate", "setting": "[3]; 2.0 mg/kg i.v., 1 min", "result": -2.4, "unit": "%"}, {"measurement": "Changes(%) of basal values, heart rate", "setting": "[3]; 2.0 mg/kg i.v., 5 min", "result": -1.5, "unit": "%"}, {"measurement": "Changes(%) of basal values, heart rate", "setting": "[3]; 2.0 mg/kg i.v., 10 min", "result": -0.7, "unit": "%"}, {"measurement": "Changes(%) of basal values, heart rate", "setting": "[3]; 2.0 mg/kg i.v., 20 min", "result": 0, "unit": "%"}, {"measurement": "Changes(%) of basal values, heart rate", "setting": "[3]; 2.0 mg/kg i.v., 30 min", "result": 0, "unit": "%"}, {"measurement": "Changes(%) of basal values, heart rate", "setting": "[3]; 2.0 mg/kg i.v., 40 min", "result": 0, "unit": "%"}, {"measurement": "Changes(%) of basal values, heart rate", "setting": "[3]; 2.0 mg/kg i.v., imm.", "result": -25.3, "unit": "%"}, {"measurement": "Effects on heart rate (in words)", "setting": "[3]; i.v., anesthetized dogs", "result": "a slight negative chronotropic effect"}]}
